Patent publication US8895585B2, “Nicotinamide derivative or salt thereof” (FUJIFILM Corporation, priority 2010, dated 2014)

Key:
female Lewis rats = experiment: Rat type-II-collagen-induced arthritis; type: in vivo; conditions: oral administration at 10 mg/kg/day, once daily Day 7 to Day 20, hindlimb volume by plethysmometer, read-out: inhibition of hindlimb swelling compared with the control group
Protocol: The compounds were tested to examine effects upon rat type II collagen arthritis. To 3 mg/mL bovine type II collagen solution (Collagen Gijutsu Kenshu-Kai) dissolved in 0.05 mol/L acetic acid, an equal amount of Freund's incomplete adjuvant (Wako Pure Chemical Industries, Ltd.) was added to prepare an emulsion. A portion of the emulsion (0.5 ml) was intradermally injected into the tail bases of 7- or 8-week-old female Lewis rats (Charles River Laboratories Japan, Inc.) (Day 0). Each rat was subjected to the same treatment on Day 7 after the initial inoculation so as to induce arthritis. Each test compound was orally administered from Day 7 to Day 20 once daily. At a given time during the period from Day 7 to Day 21, the rat hindlimb volume was determined using a plethysmometer (UGO BASILE), and the result was designated as an arthritis index. The following compound group inhibited hindlimb swelling by 85% or greater compared with the control group in the case of oral administration at 10 mg/kg/day: the compounds of Example 4-17, Example 6-49, Example 6-117, Example 6-157, Example 6-249, Example 6-322, Example 6-375, and Example 6-395.

male DBA/1J mice = experiment: Mouse type-II collagen-induced arthritis (prophylactic and therapeutic administration test); type: in vivo; conditions: for advancement of arthritis after the onset (arthritis score): prophylactic administration test, once daily Day 21 to Day 34, 1 to 30 mg/kg/day
Protocol: The compounds synthesized in Example 8-1, Example 4-17, and Example 6-49 were tested to examine effects upon mouse type II collagen arthritis. To 2 mg/mL bovine type II collagen solution (Koken Co., Ltd.) dissolved in 0.1 mol/L acetic acid, an equal amount of Freund's complete adjuvant (Wako Pure Chemical Industries, Ltd.) was added to prepare an emulsion. A portion of the emulsion was intradermally injected into the tail bases of 7- or 8-week-old male DBA/1J mice (Charles River Laboratories Japan, Inc.) at a dose of 0.2 mL per mouse (antigen amount: 0.2 mg/mouse) on Day 0 and Day 21 twice, so as to induce arthritis. Each compound was administered once daily from Day 21 to Day 34 in the prophylactic administration test (1 to 30 mg/kg/day), and administered once daily from Day 27 to Day 35 in the therapeutic administration test (25 mg/kg/day). Arthritis scores for four limbs for each mouse were determined starting from Day 21. Specifically, the total score of four limbs of a mouse was designated as the individual arthritis score (12 points at a maximum per mouse) based on the following: score 0: no change; score 1: swelling of 1 or 2 digit joints or mild swelling of the carpal region/the ankle region alone; score 2: swelling of joints of at least 3 digits or obvious swelling of the carpal region/the ankle region; and score 3: obvious swelling over forelimbs or hindlimbs.

[1] = tested on: 170 types of kinases excluding Syk; experiment: Kinase selectivity, Profiler Pro kits (Caliper); type: biochemical; conditions: test compound 100 nM
Protocol: The concentrations of test compounds were adjusted to 100 nM. The test compounds were examined using Profiler Pro kits (Caliper) in terms of activity against each of 170 types of kinases excluding Syk. […] A compound (Example 6-157) having a kinase inhibitory rate of 75% or more with respect to 12 types of kinases was also obtained. Further, an inhibitor (Example 6-373) having a kinase inhibitory rate of 75% or more with respect to 24 types of kinases was obtained.

female BALB/c mice = experiment: Mouse type-II-collagen-antibody-induced arthritis; type: in vivo; conditions: intraperitoneal 30 mg/kg/day, twice daily, Day 0 to Day 13
Protocol: The compound synthesized in Example 8-1 was tested to examine effects upon mouse-type-II-collagen-antibody-induced arthritis. An anti-type II collagen antibody mixture (Chondrex) was intraperitoneally injected into 7-week-old female BALB/c mice (Charles River Laboratories Japan, Inc.) (1.5 mg per mouse) (Day 0). An LPS solution 0111:B4 (Chondrex) (50 μg) was intraperitoneally injected thereinto three days later (Day 3), thereby inducing arthritis. Swelling scores were determined for four limbs of each mouse once daily from Day 3 to Day 14. Specifically, evaluation was carried out using a twelve-point scale for the sum of the scores for the four limbs for each mouse: 0 point: no change; 1 point: mild erythema/swelling on the carpal region or the ankle/calcaneal region; 2 points: obvious swelling on the carpal region or the ankle/calcaneal region; 3 points: severe swelling over forelimbs or hindlimbs. The compound synthesized in Example 8-1 was intraperitoneally administered at 30 mg/kg/day twice daily on consecutive days (from Day 0 to Day 13). The bone destruction score was determined based on soft X-ray images of four limbs taken on Day 14. […]

[2] = biological target: T1, glutathione S-transferase (GST)-fused full-length human Syk protein (Homo sapiens, UniProt P43405); experiment: Syk enzyme assay; type: biochemical; conditions: read-out: Syk-inhibitory activity (IC50)
T1 construct: (GST)-fused full-length human Syk protein; GST (glutathione S-transferase); purchased Carna Biosciences
Summary of the method: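 GST-tagged full-length human Syk (baculovirus) preincubated with compound 15 min at room temperature (pH 7.0, 10 mM MgCl2), then reacted 40 min with 0.4 μM biotinylated peptide substrate and 27 μM ATP (final). Phosphorylation read by HTRF (615/665 nm) after EDTA stop; IC50 reported.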

number of kinases with kinase inhibitory rate of 75% or more [1]	SMILES	inhibition in vivo at 10 mg/kg/day (female Lewis rats) [%]	advancement of arthritis after the onset (arthritis score) (male DBA/1J mice)	further results
–	Cc1ccc(Nc2nc(N[C@@H]3CCCC[C@@H]3N)c(F)cc2C(N)=O)cn1 (relative stereo) [Example 4-17, 6-(cis-2-aminocyclohexylamino)-5-fluoro-2-(6-methylpyridin-3-ylamino)nicotinamide]	≥ 85	strongly inhibited	–
–	Cc1cncc(Nc2nc(N[C@@H]3CCCC[C@@H]3N)c(F)cc2C(N)=O)c1 (relative stereo) [Example 6-49, 6-(cis-2-aminocyclohexylamino)-5-fluoro-2-(5-methylpyridin-3-ylamino)nicotinamide]	≥ 85	strongly inhibited	advancement of arthritis (arthritis score) (male DBA/1J mice; therapeutic administration test, once daily Day 27 to Day 35, 25 mg/kg/day): strongly inhibited
12 types of kinases	COCCOc1cc(Nc2nc(N[C@@H](CN)CC(C)C)c(F)cc2C(N)=O)ccn1 [Example 6-157]	≥ 85	–	–
24 types of kinases	C[C@H](N)[C@H](Nc1nc(Nc2cncc(-n3cccn3)c2)c(C(N)=O)cc1F)C1CC1 [Example 6-373, 2-((5-(1H-pyrazol-1-yl)pyridin-3-yl)amino)-6-(((1R,2S)-2-amino-1-cyclopropylpropyl)amino)-5-fluoronicotinamide]	–	–	–
–	COc1cc(Nc2nc(NCCN)c(F)cc2C(N)=O)cc(OC)c1 [Example 8-1, 6-(2-aminoethylamino)-2-(3,5-dimethoxyphenylamino)-5-fluoronicotinamide]	–	strongly inhibited	increase in the swelling score (female BALB/c mice; scored Day 3 to Day 14): almost completely inhibited; increase in the bone destruction score (female BALB/c mice; soft X-ray images on Day 14): almost completely inhibited; IC50 [2]: ≤ 1000 nM
